Earlier results on one compound are cited in patent US20250262182A1, “Beverage Composition and Process” (priority 2020, published 2025).

Where two headings read alike, the source gives them in different places.

Take `NC(=O)NCCC[C@H](N)C(=O)O` [L-citrulline]: the Adverse effects entry is “mild gastrointestinal upset” (dosages in the range of 6 g to 10 g); “stomach discomfort, bloating, or diarrhea” (dosages in the range of 10 g to 15 g); “electrolyte imbalance and/or headaches” (dosages over 20 g). Further, the Tolerability entry (dosages up to 6 g, most people) is on record as “generally well tolerated”.
